The values that follow come from ChEMBL document CHEMBL5518196, “Discovery of potent thiazolidin-4-one sulfone derivatives for inhibition of proliferation of osteosarcoma in vitro and in vivo” (Eur J Med Chem, 2024).

Data set [1] has as its system HOS-TE85. Nature of the data set: Antiproliferative activity against human MNNG/HOS cells assessed as inhibition of cell growth incubated for 72 hrs by CCK8 assay. The settings on record: HOS-TE85, 72 h. In kind it is functional, cell-based.
Data set [2] in a line: Metabolic stability in human liver microsomes assessed as half-life at 0.1 uM preincubated for 10 mins followed by NADPH addition and measured upto 60 mins by LC-MS/MS analysis. In kind it is ADME, Microsome. The settings on record: time < 70 min.
Data set [3] is described as follows: Metabolic stability in human liver microsomes assessed as bioavailability at 0.1 uM preincubated for 10 mins followed by NADPH addition and measured upto 60 mins by LC-MS/MS analysis. In kind it is ADME, Microsome. The settings on record: time < 70 min.
The nature of data set [4]: Metabolic stability in mouse liver microsomes assessed as half-life at 0.1 uM preincubated for 10 mins followed by NADPH addition and measured upto 60 mins by LC-MS/MS analysis. The format is ADME, Microsome. Conditions: time < 70 min.
The subject of data set [5] is HOS-TE85. Nature of the data set: Antiproliferative activity against human MNNG/HOS cells assessed as inhibition of cell growth incubated for 24 to 72 hrs by CellTiter-Glo luminescent cell viability assay. In kind it is functional, cell-based.
Data set [6] deals with HOS-TE85. The data set can be described thus: Inhibition of colony formation in human MNNG/HOS cells at 4 uM incubated for 10 days by crystal violet staining based light microscopic analysis. The settings on record: time 10.0 day. The format is functional, cell-based.
The subject of data set [7] is HOS-TE85. Nature of the data set: Antitumor activity against human MNNG/HOS cells xenografted in female BALB/c mouse assessed as tumor growth inhibition at 30 mg/kg, po administered twice daily for 23 days relative to control. The format is functional. Conditions: HOS-TE85, 552 h, time 23 day, read-out: TGI.
Data set [8] in a line: Half-life in male Wistar rat at 100 mg/kg, po. Conditions: in vivo.

Activity calls are given as the source filed them. The calls are words filed in the database; no cut-off is given here.

Regarding `COc1cccnc1N1C(=O)CS(=O)(=O)C1c1cccc(C(=O)NCCCCc2ccccc2)n1` (stereo unspecified), in data set [1], the IC50 was determined as 6 nM. In addition, the half-life at 0.1 µM in data set [2] worked out at 2.12 min; in data set [4] it was 1.03 min. In addition, the bioavailability at 0.1 µM in data set [3] came out at 1.94%. On to `Cc1ccnc(N2C(=O)CS(=O)(=O)C2c2cccc(C(=O)NCCCCc3ccccc3)c2)c1` (stereo unspecified), for which, in data set [1], the IC50 turned out to be 71 nM.

Regarding `CCN(CC)C(=O)CCCNC(=O)c1cccc(C2N(c3ccccn3)C(=O)CS2(=O)=O)n1` (stereo unspecified), the IC50 in data set [1] was over 1000 nM.

With `O=C(NCCCCc1ccccc1)c1cccc(C2N(c3ccccc3)C(=O)CS2(=O)=O)n1` (stereo unspecified), the IC50 in data set [1] was over 10000 nM.

As for `Cc1ccnc(N2C(=O)CS(=O)(=O)C2c2cccc(C(=O)NCCCCn3cccn3)n2)c1` (stereo unspecified), the IC50 in data set [1] was found to be 924 nM. Consider `Cc1ccnc(N2C(=O)C[S+]([O-])C2c2cccc(C(=O)NCCCCn3cccn3)n2)c1` (stereo unspecified), for which, in data set [1], the IC50 stood at 8290 nM.

As for `COc1cccnc1N1C(=O)CS(=O)(=O)C1c1cccc(C(=O)NCCCCc2ccccc2)c1` (stereo unspecified), the IC50 in data set [1] stood at 16 nM.

As to `COCCCCNC(=O)c1cccc([C@H]2N(c3ncccc3OC)C(=O)CS2(=O)=O)n1`, in data set [1], the IC50 came out at 71 nM. In the case of `COCCCCNC(=O)c1cccc(C2N(c3ccc(C)cn3)C(=O)CS2(=O)=O)n1` (stereo unspecified), in data set [1], the IC50 is 262 nM. Same read-out and setting: with `O=C(NCCCCc1ccccc1)c1cccc(C2N(c3cccc4ccccc34)C(=O)CS2(=O)=O)c1` (stereo unspecified) the figure was over 10000 nM. On to `COCCCCNC(=O)c1cccc(C2N(c3ccccn3)C(=O)CS2(=O)=O)n1` (stereo unspecified), for which the IC50 in data set [1] turned out to be 149 nM. Moreover, the half-life at 0.1 µM in data set [2] was 90.6 min; in data set [4], 56.5 min. The bioavailability at 0.1 µM in data set [3] was 45.8%. For `COCCCCNC(=O)c1cccc(C2N(c3ncccc3OC)C(=O)C[S+]2[O-])n1` (stereo unspecified), in data set [1], the IC50 was over 1000 nM. Still for that read-out and setting: in the case of `COCCCNC(=O)c1cccc(C2N(c3ccccn3)C(=O)CS2(=O)=O)n1` (stereo unspecified) it was 926 nM; in that of `COc1cccc(N2C(=O)CS(=O)(=O)C2N(CCCCc2ccccc2)C(=O)c2ccccc2)c1` (stereo unspecified), 68 nM. Same read-out and setting: in the case of `COCCCCNC(=O)c1cccc(C2N(c3ncccc3C)C(=O)CS2(=O)=O)n1` (stereo unspecified) it was 702 nM.

As to `O=C(NCCCCc1ccccc1)c1cccc(C2N(c3cccc(F)c3)C(=O)CS2(=O)=O)c1` (stereo unspecified), in data set [1], the IC50 was found to be 103 nM. Still for that read-out and setting: with `O=C(NCCCCc1ccccc1)c1cccc(C2N(c3ccc4ccccc4c3)C(=O)CS2(=O)=O)c1` (stereo unspecified) the figure was 474 nM; with `O=C(NCCCCc1ccccc1)c1cccc(C2N(c3ccc[n+]([O-])c3)C(=O)CS2(=O)=O)c1` (stereo unspecified), over 10000 nM.

As to `Cc1cccnc1N1C(=O)CS(=O)(=O)C1c1cccc(C(=O)NCCCCc2ccccc2)n1` (stereo unspecified), the IC50 in data set [1] was 50 nM. Still for that read-out and setting: with `O=C1CS(=O)(=O)C(c2cccc(C(=O)NCCCCc3ccccc3)c2)N1` (stereo unspecified) the figure was over 10000 nM; with `O=C(NCCCCc1ccccc1)c1cccc(C2N(c3ccccc3)C(=O)C[S+]2[O-])n1` (stereo unspecified), 260 nM; with `COCCCCNC(=O)c1cccc([C@@H]2N(c3ccc(F)cn3)C(=O)CS2(=O)=O)n1`, 272 nM. For `C#Cc1cc(C(=O)NCCCCc2ccccc2)cc(C2N(c3ccccn3)C(=O)CS2(=O)=O)c1` (stereo unspecified), the IC50 in data set [1] was found to be 32 nM.

Consider `Cc1ccnc(N2C(=O)CS[C@@H]2c2cccc(C(=O)NCCCCn3cccn3)c2)c1`, for which the results for the half-life at 0.1 µM in data set [2] and in data set [4] were 16.3 min and 5.36 min, respectively. For the same molecule, the bioavailability at 0.1 µM in data set [3] came out at 13.2%. Consider `O=C(NCCCCc1ccccc1)c1cccc(C2N(c3ncccc3F)C(=O)CS2(=O)=O)n1` (stereo unspecified), for which, in data set [1], the IC50 is 25 nM. Same read-out and setting: in the case of `O=C(CCCCc1ccccc1)Nc1cccc(C2N(c3ccccc3)C(=O)CS2(=O)=O)c1` (stereo unspecified) it was 508 nM; in that of `O=C(NCCCCc1ccccc1)c1cccc(C2N(CCc3ccccc3)C(=O)CS2(=O)=O)c1` (stereo unspecified), over 10000 nM. Take `CNC(=O)c1cc(Oc2ccc(NC(=O)Nc3ccc(Cl)c(C(F)(F)F)c3)cc2)ccn1` [SORAFENIB]: the IC50 in data set [5] was 4810 nM. In addition, the inhibition result in data set [6] was “Active”. Further, in data set [7], the inhibition in vivo at 30 mg/kg was 39.8%. Moreover, in data set [8], the half-life is 1310 min. As for `O=C(NCCCCc1ccccc1)c1cccc(C2N(c3ccccn3)C(=O)CS2(=O)=O)n1` (stereo unspecified), in data set [1], the IC50 was 109 nM. The same measure, in the same setting: in the case of `O=C(NCCCCc1ccccc1)c1cccc(C2N(c3ncccc3O)C(=O)CS2(=O)=O)n1` (stereo unspecified) it was 45 nM.
